Results: US10338078B2, “Method and apparatus for analyzing biomolecules using Raman spectroscopy” (Japan Science and Technology Agency, priority 2012, dated 2019)

Legend:
[1] = tested on: target protein; conditions: cited from earlier work
[2] = biological target: cathepsin B (Homo sapiens, UniProt P07858); assay: inhibition of cathepsin B enzyme activity; assay type: biochemical; conditions: read-out: activity to inhibit cathepsin B, IC50
Excerpt: Persons skilled in the art can appropriately select the position to introduce the Raman label as well as the type of Raman label to introduce by considering the structure of the compound. Moreover, persons skilled in the art having general techniques in the field of organic synthesis can appropriately synthesize a Raman-labeled compound as the low-molecular-weight compound according to the present invention. This is explained with a specific example as follows. Persons skilled in the art can synthesize an AOMK derivative (hereinafter, also referred to as RAT8-AOMK) by Raman-labeling acyloxymethyl ketone (AOMK) (an inhibitor of cathepsin B) with alkyne using general techniques in the field of organic synthesis. The RAT8-AOMK binds to cathepsin B, so as to inhibit its enzyme activity. The activity of RAT8-AOMK to inhibit cathepsin B is represented by IC50=0.3 μM. RAT8-AOMK can be synthesized and obtained by reacting N-Boc-AOMK (IC50=0.05 μM) with 4-nitrophenyl-4-ethynylbenzyl carbonate. Acyloxymethyl ketone (AOMK) is known as a cysteine protease inhibitor. The principle thereof is that a cysteine residue of the active center of an enzyme protein is modified by AOMK, and thus activity as protease is diminished (see FIG. 24).

Molecule | activity when modified with a fluorophore [1] | IC50 [2] [µM]
16F16 | loses its activity | 
C#Cc1ccc(COC(=O)N[C@@H](Cc2ccccc2)C(=O)NCC(=O)COC(=O)c2c(C)cccc2C)cc1 [RAT8-AOMK] |  | 0.3
